One data set concerns Hep-G2 cells. Briefly: Insulin-FITC internalization in cells by confocal microscopy. Type of data set: cell-based, human. The conditions noted are these: 4 h incubation, [Insulin-FITC]=10 μM.
In data set [1] the test system is STZ-induced diabetic rats. As to conditions: SC insulin 5 IU·kg^−1 or oral TTA-DFP-nCOF/Insulin 50 IU·kg^−1.
The test system of data set [2] is STZ-induced diabetic rats. The conditions noted are these: rat, in vivo.
The test system of data set [3] is non-everted mouse small intestine sac. As to conditions: pure insulin; cited from earlier work.
Data set [4] relates to STZ-induced diabetic rats. As to the kind of experiment: In vivo oral glucose tolerance test (OGTT). On the set-up: species or system Wistar rats. The conditions noted are these: glucose 2.5 g·kg^−1 by gavage 3 hours after treatment, 280 minutes; SC 5 IU·kg^−1 or oral 50 IU·kg^−1.
In data set [5] the test system is STZ-induced diabetic rats. Briefly: In vivo hypoglycemic effect. On the set-up: species or system Wistar rats. The conditions noted are these: subcutaneous injection, 5 IU kg^−1.
The next data set relates to R-HepG2 cells. Briefly: Glucose consumption assay in insulin-resistant cells. As to conditions: R-HepG2, [Insulin]=10 μM. Type of data set: cell-based, human.

Turning to insulin, in the data set on Hep-G2 cells, the “intracellular insulin-FITC signal / localization” value was “no detectable intracellular insulin-FITC signal”. In data set [1], the HOMA-IR was 0.6 (0.3) and the HOMA-IS is listed as 50.4 (11.0). In data set [2], the “histopathology of liver and kidney” value is “commonly observed damages to the liver and kidney”; the “histopathology of the kidney” value is “increase of the size of Bowman capsules, hypertrophy of the glomeruli and necrosis of the tubules”; the “histopathology of the liver” value is “increase of big hepatocytes, a necrosis of hepatocytes and a narrowing in the sinusoids”. Besides, the “Permeability (reported value)” value in data set [3] is given as 8.02 μg·cm^−2. In addition, in data set [4], the “glycaemia in OGTT” value is “decreases severely the glucose plasma level the two first hours after the glucose gavage”. Also, in data set [5], the “persistence of the blood glucose reduction” value is “the effect was not sustained” and the “time to marked reduction of the blood glucose level” value is no more than 1 h. Besides, in the data set on R-HepG2 cells (t=4 h), the “change of cellular glucose metabolism after 4 h” value was “transient increase in cellular glucose metabolism”. The “change of cellular glucose metabolism / insulin resistance after 24 h” value in the data set on R-HepG2 cells (t=24 h) is recorded as “statistically significant worsening”.

These data come from patent publication US20240238213A1 (New York University in Abu Dhabi Corporation, priority 2021, published 2024).
